Test system: LAD-ligated male C57BI/6 mice (myocardial infarction)
Test: Cardiac function after coronary artery (LAD) ligation, echocardiography
Type: in vivo, mouse
Excerpt: Adult male C57BI/6 mice, 3 months old, were purchased from Jackson Laboratories and acclimated for 3 or more days in standard housing. All mice underwent twice daily intra-gastric administration of physiologic saline for 7 days pre-operatively (acclimation period). They also underwent standard B- and M-mode echocardiographic (ECHO) imaging (VisualSonics Vevo 2100) of the left heart under conscious restraint, 1-5 days prior to surgery.
Under ketamine/xylazine anesthesia, mice were intubated and ventilated, then incised through the left thoracic wall between the 3rd and 4th ribs to expose the heart. For ligation of the left anterior descending coronary artery (LAD), an 8-0 nylon suture was inserted under microscopic view (Wild/Leica operating microscope), placing and tying the ligature at a point 1 mm distal to the point where the artery emerges from the edge of the left atrium. Confirmation was provided by clear blanching of the downstream ventricle wall. Control sham-treated mice underwent needle and 8-0 suture passage under the coronary artery but with suture removal without ligation. The wound was closed with 6-0 suture in two layers (muscle and skin, respectively) and mice were recovered on a warming blanket. They received buprenorphine intraoperatively and twice daily postoperatively for 48 hours, by subcutaneous injection (50 ug/kg body weight).
A total of 48 mice entered the study. Eight mice underwent sham surgery, and these mice received vehicle treatment after surgery. 40 mice underwent LAD ligation, with 20 in each treatment group. Treatment was by oral gavage (intra-gastric administration) at 10 mL/kg body weight, twice daily (7-9 am and 4-6 pm), starting 1-2 hours after surgery and continuing until study termination. Treatment was either with EXAMPLE 22 at a concentration of 3 mg/mL (30 mg/kg) or vehicle for the test agent.
Echocardiography was done under brief, conscious restraint using a VisualSonics Vevo 2100 ultrasound machine, pre-operatively and at 2 and 4 weeks postoperatively. Standard B-mode and M-mode ultrasound imaging was captured at each imaging session. Echocardiographic images were analyzed for left ventricular function, measuring the interventricular septal thickness, internal ventricular cavity dimension, and posterior wall thickness at both diastole and systole from M-mode images at the level of the papillary muscles. The left ventricle ejection fraction and fractional shortening were calculated from these values:
Ejection Fraction (%)=100×[LVIDd^3−LVIDs^3]/LVIDd^3Fractional Shortening (%)=100×[LVIDd−LVIDs]/LVIDd, • where LVID=left ventricle inner diameter (internal ventricular cavity dimension), d=diastole, s=systole
After the 4-week ECHO imaging, mice were anesthetized and a terminal blood draw was taken from the abdominal aorta into 3.8% citrate (9:1), and the plasma was obtained by centrifugation and frozen. Mice were then euthanized (anesthesia overdose followed by cervical dislocation) and the hearts were weighed and the area of infarction was visually measured with t ruler for cranial-caudal and for lateral axes lengths of the approximately oval infarction zone (ligated hearts only). The hearts, and both kidneys, were then immersion-fixed in neutral-buffered formalin for subsequent histopathological evaluation. Plasma, kidney, and heart specimens were returned to Study Sponsor for further evaluation. The time between the last drug dosing and the blood draw was recorded, for future dose-response evaluation by Study Sponsor.
Summary statistics by “treatment” were provided for the change from baseline to week 2 and change from baseline to week 4 where baseline was defined as the pre-echos time-point. For each parameter, the mean “treatment” difference between “Example 22” and “Vehicle” was analyzed using a 2-sample t-test. The analysis was conducted using SAS Version 9.4 via PROC TTEST under unequal variances for the “treatments” using the Satterthwaite method. […]

[1] = Ex 22 vs Vehicle, LAD-ligated mice, 30 mg/kg p.o. twice daily
[2] = LAD-ligated mice, 30 mg/kg p.o. twice daily

O=C(O)C[C@H](CCN1CCCC(F)(F)C1)NC(=O)c1cc(-c2ccccc2C(F)(F)F)n(-c2nccs2)n1 [Example 22, (3S)-5-(3,3-difluoropiperidin-1-yl)-3-{[1-(1,3-thiazol-2-yl)-5-[2-(trifluoromethyl)phenyl]-1H-pyrazol-3-yl]formamido}pentanoic acid]
deaths in ligated group (30 mg/kg p.o. twice daily, deaths between 3 and 11 days postoperatively, vehicle 7/20): 2/20 | ejection fraction (4 weeks post-treatment): Statistically significant improvement | EF, Change from baseline, Week 2, Difference [1]: 4.81% | EF, Change from baseline, Week 4, Difference [1]: 10.70% | FS, Change from baseline, Week 2, Difference [1]: 4.21% | FS, Change from baseline, Week 4, Difference [1]: 7.17% | Heart Rate, Change from baseline, Week 2, Difference [1]: 11.43 | Heart Rate, Change from baseline, Week 4, Difference [1]: −6.42 | IVS d, Change from baseline, Week 2, Difference [1]: 0.40 | IVS d, Change from baseline, Week 4, Difference [1]: 0.49 | IVS s, Change from baseline, Week 2, Difference [1]: 0.47 | IVS s, Change from baseline, Week 4, Difference [1]: 0.56 | LV Mass corrected, Change from baseline, Week 2, Difference [1]: 18.64 | LV Mass corrected, Change from baseline, Week 4, Difference [1]: 7.38 | LV Mass, Change from baseline, Week 2, Difference [1]: 23.30 | LV Mass, Change from baseline, Week 4, Difference [1]: 9.23 | LV VoI d, Change from baseline, Week 2, Difference [1]: −5.56 | LV VoI d, Change from baseline, Week 4, Difference [1]: −29.03 | LV VoI s, Change from baseline, Week 2, Difference [1]: −1.67 | LV VoI s, Change from baseline, Week 4, Difference [1]: −22.79 | LVID d, Change from baseline, Week 2, Difference [1]: −0.23 | LVID d, Change from baseline, Week 4, Difference [1]: −0.70 | LVID s, Change from baseline 2, Week 2, Difference [1]: −0.22 | LVID s, Change from baseline, Week 4, Difference [1]: −0.74 | LVPW d, Change from baseline, Week 2, Difference [1]: 0.03 | LVPW d, Change from baseline, Week 4, Difference [1]: 0.20 | LVPW s, Change from baseline, Week 2, Difference [1]: 0.09 | LVPW s, Change from baseline, Week 4, Difference [1]: 0.38 | Weight, Change from baseline, Week 2, Difference [1]: 0.21 | Weight, Change from baseline, Week 4, Difference [1]: 0.26 | EF, Change from baseline, Week 2, Mean [2]: −34.17% | EF, Change from baseline, Week 2, Median [2]: −36.15% | EF, Change from baseline, Week 4, Mean [2]: −38.46% | EF, Change from baseline, Week 4, Median [2]: −37.79% | FS, Change from baseline, Week 2, Mean [2]: −25.71% | FS, Change from baseline, Week 2, Median [2]: −27.07% | FS, Change from baseline, Week 4, Mean [2]: −28.24% | FS, Change from baseline, Week 4, Median [2]: −28.24% | Heart Rate, Change from baseline, Week 2, Mean [2]: 20.04 | Heart Rate, Change from baseline, Week 2, Median [2]: 40.66 | Heart Rate, Change from baseline, Week 4, Mean [2]: 4.65 | Heart Rate, Change from baseline, Week 4, Median [2]: 11.40 | IVS d, Change from baseline, Week 2, Mean [2]: −0.03 | IVS d, Change from baseline, Week 2, Median [2]: 0.02 | IVS d, Change from baseline, Week 4, Mean [2]: 0.10 | IVS d, Change from baseline, Week 4, Median [2]: 0.12 | IVS s, Change from baseline, Week 2, Mean [2]: −0.17 | IVS s, Change from baseline, Week 2, Median [2]: −0.24 | IVS s, Change from baseline, Week 4, Mean [2]: −0.02 | IVS s, Change from baseline, Week 4, Median [2]: 0.11 | LV Mass corrected, Change from baseline, Week 2, Mean [2]: 54.81 | LV Mass corrected, Change from baseline, Week 2, Median [2]: 63.28 | LV Mass corrected, Change from baseline, Week 4, Mean [2]: 66.14 | LV Mass corrected, Change from baseline, Week 4, Median [2]: 66.57 | LV Mass, Change from baseline, Week 2, Mean [2]: 68.51 | LV Mass, Change from baseline, Week 2, Median [2]: 79.11 | LV Mass, Change from baseline, Week 4, Mean [2]: 82.67 | LV Mass, Change from baseline, Week 4, Median [2]: 83.21 | LV VoI d, Change from baseline, Week 2, Mean [2]: 39.76 | LV VoI d, Change from baseline, Week 2, Median [2]: 38.79 | LV VoI d, Change from baseline, Week 4, Mean [2]: 53.15 | LV VoI d, Change from baseline, Week 4, Median [2]: 51.79 | LV VoI s, Change from baseline, Week 2, Mean [2]: 33.74 | LV VoI s, Change from baseline, Week 2, Median [2]: 33.90 | LV VoI s, Change from baseline, Week 4, Mean [2]: 45.96 | LV VoI s, Change from baseline, Week 4, Median [2]: 39.02 | LVID d, Change from baseline, Week 2, Mean [2]: 1.11 | LVID d, Change from baseline, Week 2, Median [2]: 1.09 | LVID d, Change from baseline, Week 4, Mean [2]: 1.36 | LVID d, Change from baseline, Week 4, Median [2]: 1.45 | LVID s, Change from baseline 2, Week 2, Mean [2]: 1.62 | LVID s, Change from baseline 2, Week 2, Median [2]: 1.69 | LVID s, Change from baseline, Week 4, Mean [2]: 1.93 | LVID s, Change from baseline, Week 4, Median [2]: 1.92 | LVPW d, Change from baseline, Week 2, Mean [2]: 0.09 | LVPW d, Change from baseline, Week 2, Median [2]: 0.13 | LVPW d, Change from baseline, Week 4, Mean [2]: −0.00 | LVPW d, Change from baseline, Week 4, Median [2]: 0.00 | LVPW s, Change from baseline, Week 2, Mean [2]: −0.29 | LVPW s, Change from baseline, Week 2, Median [2]: −0.30 | LVPW s, Change from baseline, Week 4, Mean [2]: −0.39 | LVPW s, Change from baseline, Week 4, Median [2]: −0.35 | Weight, Change from baseline, Week 2, Mean [2]: −0.13 | Weight, Change from baseline, Week 2, Median [2]: −0.30 | Weight, Change from baseline, Week 4, Mean [2]: 0.89 | Weight, Change from baseline, Week 4, Median [2]: 0.70 | cardiac function after MI (compared to vehicle treated animals, 30 mg/kg p.o. twice daily): improved cardiac fraction
